According to patent US11780851B2, “LRRK2 inhibitors” (H. Lundbeck A/S, priority 2021, dated 2023):
Like-named read-outs stand apart in the source and are kept apart here.

Key:
[1] = tested on: panel of 403 wild type kinases; assay: Broad kinase selectivity, Eurofins DiscoverX scanMAX panel; format: binding, primarily of human origin; settings: screening concentration 100 nM; for Number of Hits: 403 non-mutant kinases
Method: Protein kinase profiling of the inhibitors (Fabian, M. A. et al. inhibitors. Nat. […] Selectivity Score or S-score is a quantitative measure of compound selectivity. It was calculated by dividing the number of kinases that compounds bind to by the total number of distinct kinases tested, excluding mutant variants. S=Number of hits/Number of assays. This value can be calculated using % Ctrl as a potency threshold (below) and provides a quantitative method of describing compound selectivity to facilitate comparison of different compounds.

LRRK2 G2019S = target: T1, LRRK2 G2019S (Homo sapiens, UniProt Q5S007, G2019S); assay: LRRK2 G2019S kinase activity assay (LanthaScreen TR-FRET); format: biochemical; settings: 250 pM LRRK2 G2019S, 1.3 mM ATP, 3 h at 30° C.; n≥2 tests
T1 construct: purchased Invitrogen (Life Technologies Corporation)
How it was run: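 TR-FRET measured phosphorylation of fluorescein-ERM LRRKtide by human LRRK2 residues 970–2527, wild-type or G2019S, detected with a terbium anti-phospho-LRRKtide antibody. The 520/495 nm ratio was normalized to uninhibited and inhibitor controls. IC50 came from a Hill fit, log-averaged over independent experiments.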

[2] = Minipig B/P (brain disposition); format: in vivo, female Gottingen minipigs; settings: female, Gottingen, mean ± stdev
Method: Brain disposition of Example 13 was evaluated in female Gottingen minipigs (n=3, body weight range 13-14 kg). […] At the end of infusion (2 h) the minipigs were sacrificed and terminal blood as well as brain samples were taken (n=3). Isolated plasma and brain homogenates were extracted by standard protein precipitation in acetonitrile, containing internal standard, followed by LC-MS/MS analysis using an optimized analytical method. Concentrations of test compound in plasma and brain were quantified against matrix matched calibration standards. The total plasma and brain concentration time data are presented in Table 6 alongside the calculated brain Kp (total brain concentration:total plasma concentration ratio).

T1 sequence (Q5S007 970-2527 G2019S): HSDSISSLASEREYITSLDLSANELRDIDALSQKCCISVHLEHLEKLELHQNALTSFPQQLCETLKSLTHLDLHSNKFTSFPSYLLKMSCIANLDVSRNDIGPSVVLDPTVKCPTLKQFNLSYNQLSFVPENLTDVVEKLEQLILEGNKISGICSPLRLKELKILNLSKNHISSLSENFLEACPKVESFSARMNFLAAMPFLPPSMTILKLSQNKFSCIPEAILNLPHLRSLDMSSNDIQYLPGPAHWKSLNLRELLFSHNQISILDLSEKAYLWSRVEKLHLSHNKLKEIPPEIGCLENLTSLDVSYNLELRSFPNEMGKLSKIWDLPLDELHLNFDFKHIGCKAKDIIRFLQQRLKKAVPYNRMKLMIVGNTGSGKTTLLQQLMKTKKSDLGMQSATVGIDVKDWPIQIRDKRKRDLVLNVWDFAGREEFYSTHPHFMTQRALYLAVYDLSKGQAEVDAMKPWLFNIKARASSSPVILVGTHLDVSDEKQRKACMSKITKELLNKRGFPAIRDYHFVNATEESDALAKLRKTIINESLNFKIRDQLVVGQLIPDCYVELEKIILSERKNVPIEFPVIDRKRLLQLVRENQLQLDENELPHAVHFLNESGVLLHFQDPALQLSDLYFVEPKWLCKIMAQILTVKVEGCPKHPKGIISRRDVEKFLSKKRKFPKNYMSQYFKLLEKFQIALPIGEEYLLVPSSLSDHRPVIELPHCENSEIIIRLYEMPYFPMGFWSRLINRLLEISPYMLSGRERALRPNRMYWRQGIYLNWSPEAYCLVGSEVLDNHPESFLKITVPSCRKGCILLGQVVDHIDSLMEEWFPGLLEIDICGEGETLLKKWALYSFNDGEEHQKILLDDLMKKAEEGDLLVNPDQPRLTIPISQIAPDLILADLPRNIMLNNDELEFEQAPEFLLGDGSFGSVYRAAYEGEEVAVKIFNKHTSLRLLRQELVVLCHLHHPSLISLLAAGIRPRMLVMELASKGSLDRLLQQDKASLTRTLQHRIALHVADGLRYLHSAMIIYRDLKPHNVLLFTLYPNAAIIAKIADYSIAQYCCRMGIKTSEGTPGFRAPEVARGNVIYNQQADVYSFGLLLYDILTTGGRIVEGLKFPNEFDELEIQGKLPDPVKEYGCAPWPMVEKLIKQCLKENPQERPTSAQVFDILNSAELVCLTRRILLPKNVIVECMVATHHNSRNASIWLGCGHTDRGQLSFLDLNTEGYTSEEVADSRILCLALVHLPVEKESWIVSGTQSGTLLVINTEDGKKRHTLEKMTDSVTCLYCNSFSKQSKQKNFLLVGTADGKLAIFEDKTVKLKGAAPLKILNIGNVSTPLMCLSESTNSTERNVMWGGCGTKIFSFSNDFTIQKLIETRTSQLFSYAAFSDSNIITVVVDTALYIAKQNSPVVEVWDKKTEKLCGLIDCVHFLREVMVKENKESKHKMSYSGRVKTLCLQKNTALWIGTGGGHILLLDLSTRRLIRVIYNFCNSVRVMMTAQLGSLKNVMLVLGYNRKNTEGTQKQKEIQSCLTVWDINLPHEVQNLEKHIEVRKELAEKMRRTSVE

[2H]C([2H])([2H])c1c2c(nn1C1CCOCC1)OCCCn1nc(Cl)c3cnc(nc31)N2 [Example 13, 8-Chloro-3-(methyl-d3)-2-(tetrahydro-2H-pyran-4-yl)-2,4,12,13-tetrahydro-11H-5,7-(azenometheno)dipyrazolo[3,4-b:5′,1′-g][1]oxa[4,6,8]triazacycloundecine]
Selectivity Score ([1]; S(1): % Ctrl < 1): 0.002
Number of Hits ([1]; S(1): % Ctrl < 1, hit is LRRK2 WT): 1
Selectivity Score ([1]; S(10): % Ctrl < 10): 0.03
Number of Hits ([1]; S(10): % Ctrl < 10): 12
Selectivity Score ([1]; S(35): % Ctrl < 35): 0.094
Number of Hits ([1]; S(35): % Ctrl < 35): 38
IC50 (LRRK2 G2019S): 2.5 nM
concentration at 2 h ([2]; brain, IV bolus 0.28 mg/kg + IV infusion 0.60 mg/kg, time point 2.00 h, n = 3, read-out: CTotal, brain): 151 ± 11 ng/mL
Kp at 2 h ([2]; intravenous, total brain:total plasma concentration ratio, time point 2.00 h, n = 3): 1.63 ± 0.08
concentration at 0.083 h ([2]; plasma, IV bolus 0.28 mg/kg + IV infusion 0.60 mg/kg, time point 0.083 h, n = 3, read-out: CTotal, plasma): 95 ± 18 ng/mL
concentration at 0.5 h ([2]; plasma, IV bolus 0.28 mg/kg + IV infusion 0.60 mg/kg, time point 0.50 h, n = 3, read-out: CTotal, plasma): 89 ± 20 ng/mL
concentration at 1 h ([2]; plasma, IV bolus 0.28 mg/kg + IV infusion 0.60 mg/kg, time point 1.00 h, n = 3, read-out: CTotal, plasma): 91 ± 9 ng/mL
concentration at 1.5 h ([2]; plasma, IV bolus 0.28 mg/kg + IV infusion 0.60 mg/kg, time point 1.50 h, n = 3, read-out: CTotal, plasma): 106 ± 13 ng/mL
concentration at 1.83 h ([2]; plasma, IV bolus 0.28 mg/kg + IV infusion 0.60 mg/kg, time point 1.83 h, n = 3, read-out: CTotal, plasma): 105 ± 8 ng/mL
concentration at 2 h ([2]; plasma, IV bolus 0.28 mg/kg + IV infusion 0.60 mg/kg, time point 2.00 h, n = 3, read-out: CTotal, plasma): 93 ± 11 ng/mL
